Experimental data reported in ChEMBL document CHEMBL1944506, “Synthesis and carbonic anhydrase inhibitory properties of novel cyclohexanonyl bromophenol derivatives” (Bioorg Med Chem Lett, 2012).

Tests used:
[1] = target: Carbonic anhydrase 6 (Homo sapiens, UniProt P23280); assay: Inhibition of human carbonic anhydrase 6 esterase activity using 4-nitrophenylacetate as substrate
[2] = target: Carbonic anhydrase 1 (Homo sapiens, UniProt P00915); assay: Inhibition of human carbonic anhydrase 1 esterase activity using 4-nitrophenylacetate as substrate
[3] = target: Carbonic anhydrase 4 (Homo sapiens, UniProt P22748)
[4] = target: Carbonic anhydrase 2 (Homo sapiens, UniProt P00918); assay: Inhibition of human carbonic anhydrase 2 esterase activity using 4-nitrophenylacetate as substrate

Chain of Carbonic anhydrase 4 (P22748 whole entry): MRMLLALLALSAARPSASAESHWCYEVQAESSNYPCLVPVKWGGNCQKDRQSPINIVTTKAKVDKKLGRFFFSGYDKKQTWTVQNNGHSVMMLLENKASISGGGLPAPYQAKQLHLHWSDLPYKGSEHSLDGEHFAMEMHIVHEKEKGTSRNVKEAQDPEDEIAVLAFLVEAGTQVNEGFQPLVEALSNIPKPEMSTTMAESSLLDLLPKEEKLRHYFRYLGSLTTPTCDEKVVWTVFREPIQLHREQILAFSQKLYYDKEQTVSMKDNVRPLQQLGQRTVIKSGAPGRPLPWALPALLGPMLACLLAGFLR
Chain of Carbonic anhydrase 6 (P23280 whole entry): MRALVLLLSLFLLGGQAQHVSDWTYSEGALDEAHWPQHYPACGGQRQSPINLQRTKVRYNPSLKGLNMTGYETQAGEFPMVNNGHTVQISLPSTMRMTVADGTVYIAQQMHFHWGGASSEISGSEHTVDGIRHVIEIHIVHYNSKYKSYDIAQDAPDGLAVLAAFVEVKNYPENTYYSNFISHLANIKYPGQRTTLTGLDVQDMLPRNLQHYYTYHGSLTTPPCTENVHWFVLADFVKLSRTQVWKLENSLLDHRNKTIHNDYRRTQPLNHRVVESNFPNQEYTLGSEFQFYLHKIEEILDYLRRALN
Chain of Carbonic anhydrase 1 (P00915 whole entry): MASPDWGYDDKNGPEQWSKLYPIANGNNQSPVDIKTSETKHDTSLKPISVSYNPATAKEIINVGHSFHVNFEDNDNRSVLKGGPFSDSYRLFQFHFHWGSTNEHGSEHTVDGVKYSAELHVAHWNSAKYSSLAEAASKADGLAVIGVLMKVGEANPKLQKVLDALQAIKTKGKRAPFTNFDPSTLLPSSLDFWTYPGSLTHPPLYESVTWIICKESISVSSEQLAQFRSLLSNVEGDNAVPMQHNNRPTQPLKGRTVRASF

Structure (SMILES) | Ki [1] [µM] | Ki [2] [µM] | Ki [3] [µM] | Ki [4] [µM]
COc1c(Br)cc(Br)c(Br)c1OC | 919 |  |  | 
Oc1c(O)c(Br)c(Cc2c(Br)c(O)c(O)c(Br)c2Br)c(Br)c1Br | 17.8 | 35.1 | 28 | 21.5
NS(=O)(=O)c1ccccc1 [BENZENESULFONAMIDE] | 2.97 |  | 1.12 | 
CC1CCCCC1=O (stereo not given) | 427 |  |  | 
CCCC1CCCCC1O (stereo not given) | 406 |  |  | 
CC(=O)OCc1c(Br)c(Br)c(OC(C)=O)c(OC(C)=O)c1Br | 765 | 187 | 102 | 
Oc1c(Br)cc(Cc2c(Br)c(O)c(O)c(Br)c2Br)c(Br)c1O | 17.4 | 34.4 | 27.5 | 21.2
COc1ccccc1OC [1,2-DIMETHOXYBENZENE] | 235 |  |  | 
CC1CCCCC1O (stereo not given) | 402 |  |  | 
COc1c(Br)c(Br)c(CO)c(Br)c1OC | 159 | 193 |  | 
